Results from US10016382B2, “Method for decreasing skeletal muscle damage and/or oxidative stress in mammals” (LONZA INC., priority 2014, dated 2018).

Experiments:
Type in all cases: in vivo, dog
[1] = tested on: Thiobarbituric acid reactive substances (TBARS); test: Serum TBARS, Example 2 part one; details: for TBARS level, serum: Ex.2 part one, 250 mg/d; for TBARS: serum
Experimental: Twenty-four hours after test dogs ran the last 15 mile endurance run, serum samples were taken to evaluate biomarkers for muscle damage and antioxidant status. Blood samples were taken 1) just prior to the beginning of the study; 2) 1 day prior to running the final 15 mile run on the 14th week; 3) 1 hour immediately following the 15 mile run; and 4) 24 hours following the final 15 mile run. After a blood sample was drawn, it was allowed to clot for 30 minutes at 25° C. before being centrifuged for 15 minutes at 2000 g at 4° C. Serum was aliquoted into 0.65 mL microcentrifuge tubes and stored at −80° C. until being assayed at the end of the study for creatine kinase, canine myoglobin, thiobarbituric acid reactive substances (TBARS), and total antioxidant capacity (TAC) using the commercially available kits described in Example 1.

skeletal protein = test: Fractional synthesis rate (FSR) of skeletal protein, 15N Phe infusion, Example 2 part two
Experimental: At the end of the 60 day training program, 24 of the dogs (12 resting and 12 running) were infused with a bolus dose of 15N Phe. […] Forty-five minutes after infusion, a 5 mm Bergstrom muscle biopsy needle was used to take a biopsy of the biceps femoris muscle. The muscle samples were quickly frozen in liquid nitrogen and placed in a -80° C. freezer for later analysis]. Twenty-four hours after the resting dogs were infused with 15N Phe, the remaining 12 dogs (6 non-carnitine; 3 male and 3 female and 6 L-carnitine; 3 male and 3 female) were run for a 15 mile endurance run. Following a 30 minute period of measured physiological recovery (heart rate and body temperature), test dogs that completed the 15 mile run were infused with a 2% 15N Phe solution as described above; muscle biopsies were taken 45 minutes after infusion. To process the samples, the acid-soluble fraction containing free amino acids was removed by addition of 2% (w/v) perchloric acid. After homogenization, samples were centrifuged at 3,000×g, and the supernatant, containing free amino acids, was removed. The protein precipitate was washed three times with 2% perchloric acid before being hydrolyzed in 6N HCL. The supernatant and precipitate, respectively, were then run through an ion-exchange column packed with Dowex 50WX8-200. Phenylalanine and 3-methylhistidine (3-MH) were eluted with 2 mL of 4N NH4OH and 1 mL of nanopure H2O into a new vial and then dried under vacuum. The tert-butyldimethylsilyl (tBDMS) derivative was formed by adding 800 μL of C2CH3CN-MTBSTFA (1:1) and incubating at 110° C. for 60 minutes. Analysis of the protein precipitate of muscle samples and free amino acids were carried out on an Agilent 7890A GC system attached to an Agilent 6975C mass spectrometer. Helium was used as the carrier gas at 1 mL/min. A 1 μL volume was injected into the GC/MS in splitless mode. Oven temperature began at 150° C. and increased by 50° C./min until reaching 200° C., after which the temperature was increased by 20° C./min until reaching 270° C. The temperature was held at 270° C. for 5.5 minutes. The mass spectrometer was operated under EI and SIM modes. The 394 and 395 m/z fragments, which represented the M and M+1 fragments of phenylalanine, were monitored.

canine myoglobin = test: Serum canine myoglobin ELISA (muscle damage biomarker), Example 1; details: for Change in Myoglobin, post-run minus pre-run: following 15 mile long run at 13 wk, mean ± SEM
Experimental: Blood Analysis: Serum samples were taken at three different times from each dog during the 90 day period. The blood samples were collected as follows: 1.) just prior to scanning each dog for body composition at the beginning of the study, 2.) prior to the long run on the 13th week, and 3.) following the long run on the 13th week. The serum samples were analyzed for Phosphocreatine Kinase and Canine Myoglobin to determine the amount of muscle protein leakage that occurred following the long run and TBARS and Total Antioxidant Capacity (TAC) were determined to evaluate the antioxidant status of each of the test dogs during the exercise program. The final blood sample was taken 24 hr after the long run to obtain maximum protein leakage based on previous similar types of exercise research with human athletes. Biomarkers and Assay Methods: Blood was drawn from each dog using a serum separator tube at three different times during the 90 day period: 1.) just prior to scanning each dog for body composition at the beginning of the study, 2.) prior to the long run on the 13th week, and 3.) following the long run on the 13th week. The final blood sample was taken 24 hr after the long run to obtain maximum protein leakage based on previous similar types of exercise research with human athletes. Each time after the blood was drawn it was allowed to clot before being centrifuged for 15 min at 2000 g at 4° C. Serum was aliquoted into 1.5 mL microcentrifuge tubes and stored at −80° C. until assays were ran following the end of the study. Creatine kinase (CK) and canine myoglobin were measured to determine the amount of muscle protein leakage that occurred following the long run. Thiobarbituric acid reactive substances (TBARS) and total antioxidant capacity (TAC) were measured to evaluate the antioxidant status of each of the test dogs during the exercise program. Serum samples were analyzed for total antioxidant capacity (TAC) and thiobarbituric acid reactive substances (TBARS) using commercially available colorimetric kits supplied by Cayman Chemical Company (Ann Arbor, Mich.) per manufacturer instructions. Serum canine myoglobin levels were determined using a commercially available ELISA supplied by Innovate Research (Novi, Mich.) per manufacturer instructions. Creatine kinase activity was determined colorimetrically using a commercially available kit supplied by BioVision (San Francisco, Calif.).

C[N+](C)(C)C[C@H](O)CC(=O)[O-] [L-carnitine]
TBARS level, serum ([1]; post-run 1 hr, MDA): 16.45 µM
TBARS level, serum ([1]; prior to the 15 mile endurance run): 15.36 μM malondialdehyde (MDA)
TBARS ([1]; FEMALES, Baseline): 13.03 ± 1.29 μM MDA
TBARS ([1]; FEMALES, Post-Run 1 Hr): 17.44 ± 2.26 μM MDA
TBARS ([1]; FEMALES, Post-Run 24 Hr): 26.01 ± 3.09 μM MDA
TBARS ([1]; FEMALES, Pre-Run): 16.68 ± 2.16 μM MDA
TBARS ([1]; MALES, Baseline): 14.51 ± 1.38 μM MDA
TBARS ([1]; MALES, Post-Run 1 Hr): 15.46 ± 1.79 μM MDA
TBARS ([1]; MALES, Post-Run 24 Hr): 19.62 ± 2.38 μM MDA
TBARS ([1]; MALES, Pre-Run): 14.03 ± 2.24 μM MDA
TBARS ([1]; Whole Groups, Baseline): 13.77 ± 0.94 μM MDA
TBARS ([1]; Whole Groups, Post-Run 1 Hr, Post-Run 1 Hr): 16.45 ± 1.43 μM MDA
TBARS ([1]; Whole Groups, Post-Run 24 Hr, Post-Run 24 Hr): 22.81 ± 2.01 μM MDA
TBARS ([1]; Whole Groups, Pre-Run): 15.36 ± 1.55 μM MDA
% FSR of skeletal protein vs control (skeletal protein; Ex.2 part two, 250 mg/d, male or female dogs): did not increase
FSR (skeletal protein; Female, no run): 5.04%
FSR (skeletal protein; Female, run): 2.54%
FSR (skeletal protein; Male, no run): 3.61%
FSR (skeletal protein; Male, run): 4.63%
Myoglobin Least Sq Mean (canine myoglobin; Baseline): 10.1 ng/mL
Myoglobin Least Sq Mean (canine myoglobin; Baseline, F): 14.77 ng/mL
Myoglobin Least Sq Mean (canine myoglobin; Baseline, M): 5.43 ng/mL
Myoglobin, serum, Mean (canine myoglobin; Ex.1, 250 mg/d, Baseline, both sexes): 10.0 ng/mL
Myoglobin, serum, Mean (canine myoglobin; Ex.1, 250 mg/d, Baseline, females): 17.6 ng/mL
Myoglobin, serum, Mean (canine myoglobin; Ex.1, 250 mg/d, Baseline, males): 5.8 ng/mL
Myoglobin, serum, Mean (canine myoglobin; Ex.1, 250 mg/d, Post-run, both sexes): 19.2 ng/mL
Myoglobin, serum, Mean (canine myoglobin; Ex.1, 250 mg/d, Post-run, females): 24.5 ng/mL
Myoglobin, serum, Mean (canine myoglobin; Ex.1, 250 mg/d, Post-run, males): 14.9 ng/mL
Myoglobin, serum, Mean (canine myoglobin; Ex.1, 250 mg/d, Pre-run, both sexes): 9.0 ng/mL
Myoglobin, serum, Mean (canine myoglobin; Ex.1, 250 mg/d, Pre-run, females): 8.4 ng/mL
Myoglobin, serum, Mean (canine myoglobin; Ex.1, 250 mg/d, Pre-run, males): 9.3 ng/mL
Change in Myoglobin, post-run minus pre-run (canine myoglobin; Ex.1, 250 mg/d, females): 6.11 ± 3.51 n = 6 ng/mL
Change in Myoglobin, post-run minus pre-run (canine myoglobin; Ex.1, 250 mg/d, males): 7.04 ± 3.9 n = 10 ng/mL
Serum myoglobin values after exercise (canine myoglobin; Ex.1, 250 mg/d, post-run, summary text value, control 30.97): 19.67 ng/mL
Myoglobin Least Sq Mean (canine myoglobin; Post-run): 19.67 ng/mL
Myoglobin Least Sq Mean (canine myoglobin; Post-run, F): 24.46 ng/mL
Myoglobin Least Sq Mean (canine myoglobin; Post-run, M): 14.88 ng/mL
Myoglobin Least Sq Mean (canine myoglobin; Pre-run): 10.01 ng/mL
Myoglobin Least Sq Mean (canine myoglobin; Pre-run, F): 11.06 ng/mL
Myoglobin Least Sq Mean (canine myoglobin; Pre-run, M): 8.96 ng/mL
Myoglobin Least Sq Mean (canine myoglobin; Treatment * Sex, F): 14.77 ng/mL
Myoglobin Least Sq Mean (canine myoglobin; Treatment * Sex, M): 5.43 ng/mL
Myoglobin Least Sq Mean (canine myoglobin; Treatment level, all dogs): 10.1 ng/mL
Myoglobin, mixed model Estimate, term Time[Post-run-Pre-run] * Treatment[L-carnitine] (canine myoglobin; serum, model term): −7.625
Myoglobin, mixed model Estimate, term Time[Post-run-Pre-run] * Treatment[L-carnitine] * Sex[F] (canine myoglobin; serum, model term): −3.63
Myoglobin, mixed model Estimate, term Time[Pre-run-Baseline] * Treatment[L-carnitine] (canine myoglobin; serum, model term): 0.3222
Myoglobin, mixed model Estimate, term Time[Pre-run-Baseline] * Treatment[L-carnitine] * Sex[F] (canine myoglobin; serum, model term): −0.369
Myoglobin, mixed model Estimate, term Treatment[L-carnitine] (canine myoglobin; serum, model term): 1.653
Myoglobin, mixed model Estimate, term Treatment[L-carnitine] * Sex[F] (canine myoglobin; serum, model term): 1.582
